Reference: patent publication EP3058958B1, “ANIDULAFUNGIN COMPOSITION” (Selectchemie AG, priority 2015, dated 2016)
Numbered stars: 1 amine (or outer) side, 2 acyl side, 3 side chain; on linkers, the order of the positions; unused ones are H or OH. Bridge positions count the residues as written; N and C are the ends. Square brackets hold non-standard residues; d marks the D form. Peptide text beside a SMILES is read from it. * marks the point of attachment. pTerphenylCO(4''-OnC5H11) = CCCCCOc1ccc(-c2ccc(-c3ccc(C(=O)*)cc3)cc2)cc1; Orn(4R-OH,5R-OH) = O=C([C@H](C[C@@H](O)[C@@H](O)N[*:3])N[*:1])[*:2]; hTyr(3S-OH,4S-OH) = N[C@H](C(=O)O)[C@H](O)[C@@H](O)c1ccc(O)cc1; Pro(3S-OH,4S-Me) = C[C@H]1CN[C@H](C(=O)O)[C@H]1O; Hyp = O=C(O)[C@@H]1C[C@@H](O)CN1

Assay: Dissolution of anidulafungin powder in the polysorbate 80 solution
Assay type: physicochemical
Procedure: Next the active ingredient is added. […] Even in small scale experiments the dissolution needs more than 4 hours. The dissolution can be accelerated by a pre-treatment of the active ingredient, preferably by dispersing the active ingredient in a pharmaceutically acceptable solvent, preferably in WFI, e.g. in an ultrasonic bath, and using this dispersion in step (b).
Dissolve the pre-weighed amount of polysorbate 80 in about 75% of total amount of WFI, rinse weighing container with 100 ml of WFI into reactor; stir not less than 20 min until excipient completely dissolves with a mechanical stirrer at a speed of 150-190 rpm.
Add about 7% of total amount of WFI to the pre-weighed amount of the active pharmaceutical ingredient (API) anidulafungin in glass bottle, screw the cap, shake bottle well in order to promote wetting of API and transfer it into ultrasonic bath for homogenisation. Take not less than 3 cycles of homogenisation for 10 min. Slightly shake the bottle after each cycle, in order to rinse API particles from the walls of the bottle's upper part into suspension. After white, well-homogenized suspension is obtained, transfer it into intermediate product preparation reactor, stir with a mechanical stirrer at a speed of 150-190 rpm until substance dissolves completely.
100% of the particles were below 750 µm. Particle sizes were analysed by laser diffraction with dry dispersion using a Malvern Mastersizer 3000 instrument. The size distribution was determined from the light scattering data using the theory of light scattering developed by Gustav Mie. […] It remained an undissolved residue of about 5% which corresponds to particles with more than about 400 µm. About 9-10% of the particles were bigger than 350 µm.
In a second experiment an aliquot of the anidulafungin powder was sieved through a 50 mesh sieve, corresponding to a mesh width of 297 µm to remove the bigger particles.

Compound | dissolution in the polysorbate 80 solution (after treatment of the powder in an ultrasonic bath) | time needed for dissolution (particles with a particle size of more than 400 µm, small scale experiments, solubilizing agent added) | undissolved residue (polysorbate 80 solution, vigorous stirring for 4 h, powder D90 339 µm) | dissolution in the polysorbate 80 solution (vigorous stirring for 4 h, powder D90 339 µm, unsieved) | dissolution in the polysorbate 80 solution (powder sieved through a 50 mesh sieve (297 µm), mechanical stirrer)
CCCCCOc1ccc(-c2ccc(-c3ccc(C(=O)N[C@H]4C[C@@H](O)[C@@H](O)NC(=O)[C@@H]5[C@@H](O)[C@@H](C)CN5C(=O)[C@H]([C@@H](C)O)NC(=O)[C@H]([C@H](O)[C@@H](O)c5ccc(O)cc5)NC(=O)[C@@H]5C[C@@H](O)CN5C(=O)[C@H]([C@@H](C)O)NC4=O)cc3)cc2)cc1 [anidulafungin powder, anidulafungin] ({pTerphenylCO(4''-OnC5H11)}-[Orn(4R-OH,5R-OH)]T[Hyp][hTyr(3S-OH,4S-OH)]T[Pro(3S-OH,4S-Me)]; lactam 1-C) | complete dissolution could be achieved | more than 4 hours | about 5% | could not be dissolved completely | –
CCCCCOc1ccc(-c2ccc(-c3ccc(C(=O)N[C@H]4C[C@@H](O)[C@@H](O)NC(=O)[C@@H]5[C@@H](O)[C@@H](C)CN5C(=O)[C@H]([C@@H](C)O)NC(=O)[C@H]([C@H](O)[C@@H](O)c5ccc(O)cc5)NC(=O)[C@@H]5C[C@@H](O)CN5C(=O)[C@H]([C@@H](C)O)NC4=O)cc3)cc2)cc1 [sieved powder, anidulafungin] ({pTerphenylCO(4''-OnC5H11)}-[Orn(4R-OH,5R-OH)]T[Hyp][hTyr(3S-OH,4S-OH)]T[Pro(3S-OH,4S-Me)]; lactam 1-C) | – | – | – | – | could be dissolved easily
